Laboratory results published in ChEMBL document CHEMBL1129074, “Inhibitors of human immunodeficiency virus type 1 derived from gp41 transmembrane protein: structure--activity studies” (J Med Chem, 1996).
Peptide text beside a SMILES is read from it.

Key:
Settings in all cases: Homo sapiens
MT4 [1] = assay: Inhibitory potency of gp41 fragment against HIV-1 induced cytopathic effect in MT-4 cell assay at 16 uM; format: functional
MT4 [2] = assay: Inhibitory potency of gp41 fragment against HIV-1 induced cytopathic effect in MT-4 cell assay; format: functional, cell-based
MT4 [3] = assay: Inhibitory potency of gp41 fragment against HIV-1 induced cytopathic effect in MT-4 cell assay at 80 uM; format: functional

**Q.** What does the source list for `CCCCCCCCCCCCC(N)C(=O)N[C@@H](CCC(N)=O)C(=O)N[C@@H](CC(C)C)C(=O)N[C@H](C(=O)N[C@H](C(=O)N[C@@H](Cc1c[nH]c2ccccc12)C(=O)NCC(=O)N[C@H](C(=O)N[C@@H](CCCCN)C(=O)N[C@@H](CCC(N)=O)C(=O)N[C@@H](CC(C)C)C(=O)N[C@@H](CCC(N)=O)C(=O)N[C@@H](C)C(=O)N[C@@H](CCCN=C(N)N)C(=O)N[C@H](C(=O)O)[C@@H](C)CC)[C@@H](C)CC)C(C)C)[C@@H](C)O` (stereo partly drawn) (HELM PEPTIDE1{[CCCCCCCCCCCCC(N)C(=O)[*:2]].Q.L.T.V.W.G.I.K.Q.L.Q.A.R.I}$$$$V2.0)?
**A.** inhibition at 16 µM (MT4 [1]): 32%; IC50 (MT4 [2]): 8.9 µM

**Q.** With `CC[C@H](C)[C@H](NC(=O)[C@H](CCCN=C(N)N)NC(=O)[C@H](C)NC(=O)[C@H](CCC(N)=O)NC(=O)[C@H](CC(C)C)NC(=O)[C@H](CCC(N)=O)NC(=O)CCCCCNC(=O)CCCCCNC(=O)[C@@H](NC(=O)[C@@H](NC(=O)[C@H](CC(C)C)NC(=O)[C@H](CCC(N)=O)NC(=O)[C@H](CC(C)C)NC(=O)[C@H](CC(C)C)NC(=O)[C@H](Cc1c[nH]cn1)NC(=O)[C@H](CCC(N)=O)NC(C)=O)[C@@H](C)O)C(C)C)C(=O)N[C@@H](CC(C)C)C(=O)N[C@@H](C)C(=O)N[C@H](C(=O)N[C@@H](CCC(=O)O)C(=O)O)C(C)C` (HELM PEPTIDE1{[ac].Q.H.L.L.Q.L.T.V.[O=C(CCCCCN[*:1])[*:2]].[O=C(CCCCCN[*:1])[*:2]].Q.L.Q.A.R.I.L.A.V.E}$$$$V2.0) as the compound, how does the inhibition at 80 µM (MT4 [3]) read?
**A.** Its inhibition at 80 µM is 27%.
